Test results reported in patent US8575153B2 (Kowa Company, Ltd., priority 2008, dated 2013).

Legend:
[1] = biological target: Recombinant human JAK3 enzyme (JAK3 kinase region; Ala795-Ser1124) (Homo sapiens, UniProt P52333); experiment: JAK3 Kinase Assay (Kinase-Glo luminescent, ATP consumption); settings: read-out: Inhibition rate (%) of JAK3 kinase activity
Recombinant human JAK3 enzyme (JAK3 kinase region; Ala795-Ser1124), sequence (P52333 795-1124): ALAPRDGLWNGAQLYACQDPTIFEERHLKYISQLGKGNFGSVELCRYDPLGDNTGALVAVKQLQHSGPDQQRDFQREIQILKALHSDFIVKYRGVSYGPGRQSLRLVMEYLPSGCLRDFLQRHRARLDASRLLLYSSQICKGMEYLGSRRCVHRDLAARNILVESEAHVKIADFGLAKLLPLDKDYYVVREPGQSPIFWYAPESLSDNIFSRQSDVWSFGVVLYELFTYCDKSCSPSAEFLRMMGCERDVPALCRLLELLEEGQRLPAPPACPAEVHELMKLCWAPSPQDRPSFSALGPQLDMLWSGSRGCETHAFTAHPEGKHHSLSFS

Row | inhibition at 0.1 µM [1] [%] | melting point | SMILES
1 | 61 | 213.5 to 214.1 °C (dec.) | N#Cc1cc(Nc2cc(NCc3cc(F)cc(F)c3)c(C(N)=O)cn2)ccc1N1CCOCC1 [Example 125, 6-[(3-cyano-4-morpholinophenyl)amino]-4-[(3,5-difluorobenzyl)amino]pyridine-3-carboxyamide]
2 | 60 | 223 to 224 °C (dec.) | Cc1cc(Nc2cc(NCc3cc(F)cc(F)c3)c(C(N)=O)cn2)ccc1N1CCOCC1 [Example 126, 4-[(3,5-difluorobenzyl)amino]-6-[(3-methyl-4-morpholinophenyl)amino]-pyridine-3-carboxyamide]
3 | 81 | 222 to 223 °C (dec.) | NC(=O)c1cnc(Nc2ccc(N3CCOCC3)c(Cl)c2)cc1NCc1cc(F)cc(F)c1 [Example 127, 6-[(3-chloro-4-morpholinophenyl)amino]-4-[(3,5-difluorobenzyl)amino]pyridine-3-carboxyamide]
4 | 63 | 238 to 240 °C (dec.) | NC(=O)c1cnc(Nc2ccc(N3CCC(O)CC3)cc2)cc1NCc1cc(F)cc(F)c1 [Example 191, 4-[(3,5-difluorobenzyl)amino]-6-{[4-(4-hydroxypiperidino)phenyl]amino}pyridine-3-carboxyamide]
5 | 88 | 218 to 219 °C | C[C@@H]1CN(c2ccc(Nc3cc(NCc4c(F)cccc4F)c(C(N)=O)cn3)cc2)C[C@H](C)N1 [Example 143, 4-[(2,6-difluorobenzyl)amino]-6-({4-[(3R,5S)-3,5-dimethylpiperazin-1-yl]phenyl}amino) pyridine-3-carboxyamide]
6 | 89 | 223 to 226 °C (dec.) | NC(=O)c1cnc(Nc2ccc(N3CCC(=O)CC3)cc2)cc1NCc1cc(F)cc(F)c1 [Example 192, 4-[(3,5-difluorobenzyl)amino]-6-{[4-(4-oxopiperidino)phenyl]amino}pyridine-3-carboxyamide]
